The test system of the first test is MCH receptors. Briefly: MCH receptor activity class (method not given).
Conditions: not given
In the case of `COc1cccc(C(=O)N[C@H]2CC[C@@H](Nc3ncc(C)c(N(C)C)n3)CC2)c1` [Example 2563, N-(cis-4-{[4-(dimethylamino)-5-methylpyrimidin-2-yl]amino}cyclohexyl)-3-methoxybenzamide], the class came to 1.

The same test, now with this note: MCH receptor activity class 1-3 (percent of control at 10^-7 M or IC50).
As to `Cc1c(NC(=O)NC[C@H]2CC[C@@H](Nc3cc(N(C)C)c4ccccc4n3)CC2)cccc1[N+](=O)[O-]` [compound 2381, N-[(cis-4-{[4-(dimethylamino)quinolin-2-yl]amino}cyclohexyl)methyl]-N′-(2-methyl-3-nitrophenyl)urea], the class is 2 (Class 2: The value of percent of control at 10^−7 M was from 40% to 60% or the value of IC′50 was from 50 nM to 200 nM.).

In the case of `Cc1cccc(C)c1NC(=O)NC[C@H]1CC[C@@H](Nc2nccc(N(C)C)n2)CC1` [compound 2406, N-[(cis-4-{[4-(dimethylamino)pyrimidin-2-yl]amino}cyclohexyl)methyl]-N′-(2,6-dimethylphenyl)urea], the class was 1 (Class 1: The value of percent of control at 10^−7 M was less than 40% or the value of IC50 was less than 50 nM.). The same measure, in the same setting: with `Cc1cccc(C)c1NC(=O)NC[C@H]1CC[C@@H](Nc2cc(N(C)C)c3ccccc3n2)CC1` [compound 2360] the figure was 3 (Class 3 The value of percent of control at 10^−7 M was more than 60% or the value of IC50 was more than 200 nM.); with `CN(C)c1cc(N[C@H]2CC[C@@H](CNC(=O)Nc3cc(F)cc(F)c3)CC2)nc2ccccc12` [compound 2403], 3 (Class 3 The value of percent of control at 10^−7 M was more than 60% or the value of IC50 was more than 200 nM.).

The test is the same for the next values; noted with them: MCH receptor; class by percent of control at 10^-7 M or IC50.
For the compound `CN(C)c1cc(N[C@H]2CC[C@@H](NC(=O)c3ccc([N+](=O)[O-])cc3Cl)CC2)nc2ccccc12` [compound 102], the class was 3 (Class 3 The value of percent of control at 10^−7 M was more than 60% or the value of IC50 was more than 200 nM.). Regarding `CN(C)c1nc(N[C@H]2CC[C@@H](NC(=S)Nc3cc(Cl)cc(Cl)c3)CC2)nc2c1CCCC2` [compound 1981], the class was 3 (Class 3 The value of percent of control at 10^−7 M was more than 60% or the value of IC50 was more than 200 nM.).

Still in this test, the particulars now being: activity class 1-3: percent of control at 10^-7 M or IC50.
For `CCOC(=O)NC[C@H]1CC[C@@H](Nc2nc3c(c(N(C)C)n2)CCCC3)CC1` [compound 1607], the class is 3 (Class 3 The value of percent of control at 10^−7 M was more than 60% or the value of IC50 was more than 200 nM.).

The same test, now with this note: activity class per percent of control at 10^-7 M or IC50.
On to `CN(C)c1nc(N[C@H]2CC[C@@H](CNC(=O)C(Cc3ccccc3)c3ccccc3)CC2)nc2c1CCCC2` (relative stereo) [compound 1066], for which the class was 3 (Class 3 The value of percent of control at 10^−7 M was more than 60% or the value of IC50 was more than 200 nM.). Consider `COc1ccc(OC)c(CN[C@H]2CC[C@@H](Nc3cc(N(C)C)c4ccccc4n3)CC2)c1` [compound 1088], for which the class is 3 (Class 3 The value of percent of control at 10^−7 M was more than 60% or the value of IC50 was more than 200 nM.).

Staying with this test, now noted: class 1-3 by percent of control at 10^-7 M or IC50.
As to `COc1ccc(OC)c(CC(=O)N[C@H]2CC[C@@H](Nc3nc4c(c(N(C)C)n3)CCCC4)CC2)c1` [compound 471], the class is on record as 3 (Class 3 The value of percent of control at 10^−7 M was more than 60% or the value of IC50 was more than 200 nM.).

With `CN(C)c1nc(N[C@H]2CC[C@@H](NC(=O)c3cccc(Br)c3)CC2)nc2c1CCCC2` [compound 457], the class is recorded as 1 (Class 1: The value of percent of control at 10^−7 M was less than 40% or the value of IC50 was less than 50 nM.). Turning to `CN(C)c1nc(N[C@H]2CC[C@@H](NC(=O)c3cccc(C(F)(F)F)c3)CC2)nc2c1CCCC2` [compound 552], the class is reported as 1 (Class 1: The value of percent of control at 10^−7 M was less than 40% or the value of IC50 was less than 50 nM.).

With `CN(C)c1nc(N[C@H]2CC[C@@H](NC(=O)c3ccccc3OC(F)(F)F)CC2)nc2c1CCCC2` [compound 554], the class was 3 (Class 3 The value of percent of control at 10^−7 M was more than 60% or the value of IC50 was more than 200 nM.).

The test is the same for the next values; noted with them: class by percent of control at 10^-7 M or IC50.
Take `Cc1cccc(C(C)C)c1NC(=O)N[C@H]1CC[C@@H](Nc2cc(N(C)C)c3ccccc3n2)CC1` [compound 2109, N-(cis-4-{[4-(dimethylamino)quinolin-2-yl]amino}cyclohexyl)-N′-(2-isopropyl-6-methylphenyl)urea]: the class is given as 2 (Class 2: The value of percent of control at 10^−7 M was from 40% to 60% or the value of IC′50 was from 50 nM to 200 nM.). In the case of `Cc1ccc(C(=O)NC[C@H]2CC[C@@H](Nc3nc4c(c(N(C)C)n3)CCCC4)CC2)c(F)c1F` [compound 622], the class is recorded as 3 (Class 3 The value of percent of control at 10^−7 M was more than 60% or the value of IC50 was more than 200 nM.). Still for that read-out and setting: with `Cc1cc(CNC[C@H]2CC[C@@H](Nc3nccc(N(C)C)n3)CC2)cc(C)c1O` [compound 1261] the figure was 1 (Class 1: The value of percent of control at 10^−7 M was less than 40% or the value of IC50 was less than 50 nM.); with `Cc1cc2occ(CN[C@H]3CC[C@@H](Nc4nccc(N(C)C)n4)CC3)c(=O)c2cc1Cl` [compound 1228], 3 (Class 3 The value of percent of control at 10^−7 M was more than 60% or the value of IC50 was more than 200 nM.). Consider `CN(C)c1ccnc(N[C@H]2CC[C@@H](NC(=O)c3ccc(I)cc3)CC2)n1` [compound 259], for which the class is listed as 3 (Class 3 The value of percent of control at 10^−7 M was more than 60% or the value of IC50 was more than 200 nM.).

Consider `CN(C)c1nc(N[C@H]2CC[C@@H](NC(=O)Nc3ccc4c(c3)OCCO4)CC2)nc2c1CCCC2` [compound 1731], for which the class is 3 (Class 3 The value of percent of control at 10^−7 M was more than 60% or the value of IC50 was more than 200 nM.).

For the compound `CN(C)c1cc(N[C@H]2CC[C@@H](NC(=O)NCc3ccccc3F)CC2)nc2ccccc12` [compound 2143], the class is listed as 3 (Class 3 The value of percent of control at 10^−7 M was more than 60% or the value of IC50 was more than 200 nM.). With `CC(NC(=O)N[C@H]1CC[C@@H](Nc2cc(N(C)C)c3ccccc3n2)CC1)c1ccccc1` (relative stereo) [compound 2136], the class is recorded as 3 (Class 3 The value of percent of control at 10^−7 M was more than 60% or the value of IC50 was more than 200 nM.). `Cc1cccc([N+](=O)[O-])c1NC(=O)N[C@H]1CC[C@@H](Nc2nc3c(c(N(C)C)n2)CCCC3)CC1` [compound 1802]: the class is 3 (Class 3 The value of percent of control at 10^−7 M was more than 60% or the value of IC50 was more than 200 nM.). `CN(C)c1cc(N[C@H]2CC[C@@H](NC(=O)Cc3ccc(F)cc3Cl)CC2)nc2ccccc12` [compound 675]: the class is listed as 3 (Class 3 The value of percent of control at 10^−7 M was more than 60% or the value of IC50 was more than 200 nM.). In the case of `CN(C)c1ccnc(N[C@H]2CC[C@@H](NC(=O)C(CC(=O)c3ccccc3)c3c[nH]c4ccccc34)CC2)n1` (relative stereo) [compound 855, N-(cis-4-{[4-(dimethylamino)pyrimidin-2-yl]amino}cyclohexyl)-2-(1H-indol-3-yl)-4-oxo-4-phenylbutanamide], the class is reported as 1 (Class 1: The value of percent of control at 10^−7 M was less than 40% or the value of IC50 was less than 50 nM.). For the compound `CN(C)c1nc(N[C@H]2CC[C@@H](NC(=S)Nc3cccc4ccccc34)CC2)nc2c1CCCC2` [compound 1744], the class is 3 (Class 3 The value of percent of control at 10^−7 M was more than 60% or the value of IC50 was more than 200 nM.).

Consider `CN(C)c1ccnc(N[C@H]2CC[C@@H](NC(=O)Nc3ccc(C#N)cc3)CC2)n1` [compound 2208], for which the class is recorded as 3 (Class 3 The value of percent of control at 10^−7 M was more than 60% or the value of IC50 was more than 200 nM.). Consider `CN(C)c1nc(N[C@H]2CC[C@@H](CNCc3cc(Cl)cc(Br)c3O)CC2)nc2c1CCCC2` [compound 1404], for which the class is 2 (Class 2: The value of percent of control at 10^−7 M was from 40% to 60% or the value of IC′50 was from 50 nM to 200 nM.). The same measure, in the same setting: the value for `COC(CNC1CCC(Nc2nc3c(c(N(C)C)n2)CCCC3)CC1)c1ccccc1` (centres unmarked) [compound 1484] was 3 (Class 3 The value of percent of control at 10^−7 M was more than 60% or the value of IC50 was more than 200 nM.). Take `C[C@H](NC(=O)c1ccccc1C(=O)N[C@H]1CC[C@@H](Nc2cc(N(C)C)c3ccccc3n2)CC1)c1ccccc1` [compound 758]: the class is 3 (Class 3 The value of percent of control at 10^−7 M was more than 60% or the value of IC50 was more than 200 nM.). Regarding `CN(C)c1ccnc(N[C@H]2CC[C@@H](CNC(=O)c3ccc(Cl)s3)CC2)n1` [compound 929], the class was 3 (Class 3 The value of percent of control at 10^−7 M was more than 60% or the value of IC50 was more than 200 nM.).

Take `CN(C)c1ccnc(N[C@H]2CC[C@@H](NC(=O)Cc3ccc(Cl)cc3)CC2)n1` [compound 246]: the class was 3 (Class 3 The value of percent of control at 10^−7 M was more than 60% or the value of IC50 was more than 200 nM.).

Still in this test, the particulars now being: class by percent of control at 10^−7 M or IC50.
As to `Cc1cc(N(C)C)nc(NC2CCC(NC(=O)c3cccc([N+](=O)[O-])c3)CC2)n1` (centres unmarked) [compound 2992, N-(4-{[4-(dimethylamino)-6-methylpyrimidin-2-yl]amino}cyclohexyl)-3-nitrobenzamide], the class was 1 (Class 1: The value of percent of control at 10^−7 M was less than 40% or the value of IC50 was less than 50 nM.).

For `Cc1cc(C(=O)N[C@H]2CC[C@@H](Nc3nc(C)c(C)c(N(C)C)n3)CC2)ccc1Br` [compound 2852, 4-bromo-N-(cis-4-{[4-(dimethylamino)-5,6-dimethylpyrimidin-2-yl]amino}cyclohexyl)-3-methylbenzamide], the class is listed as 1 (Class 1: The value of percent of control at 10^−7 M was less than 40% or the value of IC50 was less than 50 nM.). Still for that read-out and setting: with `Cc1cc(N(C)C)nc(NC[C@H]2CC[C@@H](NC(=O)c3ccc(C(F)(F)F)c(F)c3)CC2)n1` [compound 2747] the figure was 3 (Class 3 The value of percent of control at 10^−7 M was more than 60% or the value of IC50 was more than 200 nM.).

Source of the values: patent US20050197350A1, “Novel quinoline, tetrahydroquinazoline, and pyrimidine derivatives and methods of treatment related to the use thereof” (TAISHO PHARMACEUTICAL CO., LTD., priority 2003, published 2005).
